Measured values from patent publication US10370359B2, “Process for the preparation of crystalline dexlansoprazole” (DIPHARMA FRANCIS S.r.l., priority 2017, dated 2019).
Like-named read-outs stand apart in the source and are kept apart here.

Legend:
[1] = assay type: physicochemical; conditions: for purity of the samples, 24 h: after 24 hours at 70° C. in an oven; for purity of the samples, 24 h / purity of the samples, 48 h / purity of the samples, 72 h / purity of the samples, 0 h: HPLC at 285 nm; for purity of the samples, 48 h: after 48 hours at 70° C. in an oven; for purity of the samples, 72 h: after 72 hours at 70° C. in an oven; for purity of the samples, 0 h: time 0, before heating at 70° C.
Protocol: The samples of crystalline anhydrous dexlansoprazole prepared according to the method of the present invention (new method) and those made according to the method of U.S. Pat. No. 8,314,241 (present Example 4) are heated in an oven at 70° C.
After 24, 48 and 72 hours, samples are taken and analyzed by HPLC at a wavelength of 285 nm.

[2] = Thermal stability of dexlansoprazole in solution (dispersion), HPLC; assay type: physicochemical; conditions: dispersion 14 hours at 45° C., distillation at 50° C. at reduced pressure, further 14 hours at 45° C.; not present at time 0
Protocol: In order to establish the thermal stability of dexlansoprazole the dispersion of dexlansoprazole was heated for 14 hours at 45° C., then a distillation at 50° C. at reduced pressure was performed and finally the dispersion was kept for further 14 hours at 45° C.
The color of the resulting dispersion turned into a slight yellow.

[3] = listed as crystalline anhydrous dexlansoprazole prepared with the procedure of the present

| decrease of the concentration of crystalline anhydrous dexlansoprazole ([1]; 70° C. for 72 hours, Area % HPLC at 285 nm) | purity of the samples, 24 h [1] [%] | purity of the samples, 48 h [1] [%] | purity of the samples, 72 h [1] [%] | purity of the samples, 72 h [1, 3] [%] | purity of the samples, 0 h [1] [%] | purity of the samples, 0 h [1, 3] [%] | increase of the contents of all the impurities ([1]; after 24 hours at 70° C.) | increase of the contents of all the impurities ([1]; after 72 hours at 70° C.) [%] | content of impurity of formula (I) formed [2] [%] | SMILES |
| --- | --- | --- | --- | --- | --- | --- | --- | --- | --- | --- |
| less than 0.1% | 99.95 | 99.93 | 99.93 | 99.93 | 99.96 | 99.96 | – | – | – | Cc1c(OCC(F)(F)F)ccnc1C[S@@+]([O-])c1nc2ccccc2[nH]1 [Method of the present invention] |
| – | 99.28 | 99.09 | 98.91 | – | 99.51 | – | more than 0.2% | 0.60 | – | Cc1c(OCC(F)(F)F)ccnc1C[S@@+]([O-])c1nc2ccccc2[nH]1 [U.S. Pat. No. 8,314,241] |
| – | – | – | – | – | – | – | – | – | 0.03 | Cc1c(OCC(F)(F)F)ccnc1C[S@@+]([O-])c1nc2ccccc2[nH]1 [dexlansoprazole] |
